Key:
Format in all cases: physicochemical
[1] = UV/Vis absorbance at 400 nm and Yellowness Index of the ring-open isomer; details: for Abs @ 400 nm, RO (Absorption of ring-open isomer at 400 nm): 2×10^−5 M solution, 1 cm pathlength cuvette
From the text: In addition to the above, chromophores should have acceptable colour for both the ring-opened and ring-closed isomers. For example, the ring-open isomer of the chromophore should have a Yellowness Index (YI) of less than about 10 and an absorbance at 400 nm, as measured for a 2×10^−5 M solution in a 1 cm pathlength cuvette. For the ring-closed isomer of the chromophore, the lambda max should be between about 475 nm and 700 nm, tunable according to desired colour and number of chromophores in the composition.
(§1) UV/Vis spectra were obtained using an OceanOptics™ Spectrophotometer. A 2×10^−5 M solution of compound in solvent was prepared, and photofaded using visible light until absorption in the visible region of the spectrum stabilized. The sample was then irradiated with simulated sunlight (QSUN SS-150 Solar Simulator with xenon arc lamp) until the absorption spectrum stabilized. To obtain PSS in the presence of a UV blocking film, a second sample was prepared and irradiated as described, with a UV blocking film inserted in the light path when irradiating.

[2] = Photostationary state (PSS) and lambda max under simulated sunlight (solar simulator); details: for PSS (SS): absorbance at photostationary state, simulated sunlight (solar simulator), 2×10^−5 M solution; for λmax (nm): peak in the visible range, ring-closed (dark) state
From the text: The term “photostationary state” (PSS) refers to an equilibrium state of a compound or material where the rate of the ring closing (forward) reaction is equal to the rate of the ring-opening reaction, when irradiated with light in a given region of the spectrum. In other words, the ratio of the ring-open isomer to the ring-closed isomer is at an equilibrium. PSS may be expressed with reference to a light source, or with reference to a type of light, for example, QUV, Xenon-arc lamp, Q-SUN, natural or filtered sunlight, UV, VIS, IR, NIR, full spectrum or the like, or with reference to a particular wavelength or range of wavelengths, or in the presence or absence of a filter. Some ring-open and ring-closed isomers may undergo isomerization from one to the other in response to different wavelengths of light. If a wavelength of light is used where only one of the isomers absorbs, irradiation results in complete isomerization to the other form. 254 nm, 313 nm or 365 nm light are commonly used in studies of UV-absorbing isomers, but this may not be representative of the PSS under other light conditions that include the visible spectrum such as natural or simulated sunlight (“full spectrum” light) and/or with filters that block a portion of the UV component of the light. For example, in a ring-closed (dark) state, the magnitude of the maximum absorbance in the visible range may change with the light source (FIG. 1). The wavelength at this peak in the visible range may be referred to as lambda max, or λmax. […] When full spectrum light from a solar simulator (Xenon arc lamp) is used as a light source (line B), a balance is achieved between the ring-closed (dark) state induced by the UV component, and a ring-open (faded) state induced by the visible component of the light. Inclusion of a UV blocking layer in the light path (line A) may reduce the UV component of the light, and the ring-opening reaction induced by the visible light component becomes more prominent. […] Where desired, the ratio of ring-open and ring-closed isomers at a PSS may be quantified by ^1H NMR spectroscopy, such as described in U.S. Pat. No. 7,777,055. In various embodiments, compounds with an increased absorbance at a photostationary state (PSS), or increased contrast ratio, are an improvement over other diarylethene compounds. A compound with a greater absorbance in the visible range can be used in lesser quantities in a formulation or material to achieve a desired contrast ratio, whereas a compound with a lower absorbance at a PSS may need a higher concentration to achieve a desired contrast ratio.
Photostationary State (PSS)
as §1

[3] = Oxidation potential of ring-closed and ring-open isomers; details: no unit printed in table (V relative to Ag/AgCl)
From the text: In various embodiments, at a PSS, some of the chromophore will be in the ring-closed isomer, with a small, but non-zero portion of ring-open isomer. The oxidation potential of a ring-open isomer may be more anodic than the oxidation potential of a ring-closed isomer. Exposure to a potential that is too far beyond what is necessary to oxidize the ring-closed isomer may result in oxidation of the ring-open isomer, which may be irreversible and result in electrochemically-induced degradation of the chromophore.
Thus, in various embodiments, an anodic chromophore may have an oxidation potential of from about 0.4 V to 1.2 V for the ring-closed isomer and about 1.0 V to 2.5 V for the ring-open isomer relative to an Ag/AgCl reference electrode. In various embodiments, the oxidation potential for the ring-open isomer is about 250 mV more anodic than the oxidation potential for the ring-closed isomer. For example, the oxidation potential may be about 260 mV, about 280 mV, about 300 mV, about 320 mV, about 340 mV, about 360 mV, about 380 mV, about 400 mV, about 420 mV, about 440 mV, or about 460 mV more anodic than the oxidation potential for the ring-closed isomer.

[4] = Photostability: xenon arc weathering of chromophore solutions, LCMS analysis; details: for Ketone (%) / Minus-2HF (%) / Minus-HF (%) / Sulfone (%) / Chromophore Remaining (%): xenon arc, 82° C. bp; for Ketone (%) / Minus-2HF (%) / Minus-HF (%) / Sulfone (%): linearly interpolated to 0.5 MJ/m2 @ 340 nm; for Chromophore Remaining (%): linearly interpolated to 0.5 MJ/m2 @ 340 nm of exposure energy; for Photostability (in words): weathering experiments
From the text: Photostability (resistance to light-induced degradation) may be measured by the amount of time required for the compound, or a material comprising the compound, to degrade to a certain point under light exposure. The light exposure may be constant, or cyclic. The light transmittance or absorbance of the compound, or material comprising the compound, may be determined at both a light state and dark state prior to testing, to determine a contrast ratio. During testing, the contrast ratio may be monitored (periodically or continually), the compound or material may be determined to have failed when the contrast ratio falls outside, or below, a selected range, or when the contrast ratio decreases to a percentage of the original contrast ratio. Photostability may also be expressed with reference to a light source or with reference to a type of light.
Chromophore solutions in Rhodiasolv IRIS were prepared at 1 to 10 wt % loading. Solutions were prepared in a glovebox by charging the chromophore and Rhodiasolv IRIS to a trace-clean vial, and the solution was stirred on a hotplate at 90° C. for 2-24 hours. After cooling, the chromophore solution was injected into glass weathering cells and the fill and vent ports were sealed with a thin disc of Kalrez (FFKM Perfluorinated Elastomer) and secured with a clamp and set-screw. The weathering cells were filled and sealed inside the glove box.
Measurement of Photostability
A. Fabrication of cuvettes. Two holes of 0.8 mm diameter were drilled at opposite ends in a 75×50 mm piece of float glass using a diamond drill bit in a rotary tool. The drilled glass and a matching piece of undrilled glass were then cleaned using hot soapy water, rinsed with deionized water and acetone and then dried with compressed air. A 5 mm wide frame was cut from a sheet of 50 μm thickness EVAL EF-F using a laser engraver. The EVAL frame was placed around the perimeter of one sheet of glass and sandwiched by the second sheet of glass. The glass-EVAL-glass sandwich was secured with tape and heated under vacuum (10 mmHg) for 30 minutes at 170° C. in a vacuum bag. After cooling, a third piece of float glass was PVB laminated to the non-drilled side of the sealed glass cells using Trosifol UV Extra Protect B150 PVB (400 nm UV cut-off).
B. Xenon arc weathering protocol. Devices were exposed to simulated weathering conditions inside a Xe-3-HS xenon arc chamber, manufactured by Q-labs Inc. The samples were weathered according to the following table. The devices were exposed to these conditions continuously, with no dark or spray cycles included.
C. Analysis of weathered chromophore solutions by LCMS. The set-screws, metal clamps and Kalrez plugs were removed from the cuvette to expose the fill port. A 5 mL plastic syringe (NORM-JECT®) equipped with a tip (Precision Tips, 0.010″ RED) was inserted into one fill port and the chromophore solution was withdrawn from the cuvette. The chromophore solution was then injected into a 2 mL amber vial (part number 5182-0716, Agilent Technology) prefilled with 1.5 mL LC-MS grade acetonitrile (HiPerSolbe CHROMANORM Acetonitrile, VWR BDH Chemicals). An aliquot of the acetonitrile solution (2 μL) was injected into the LC-MS system (Agilent Infinity 1290 LC-MS system with diode array detector) through an autosampler mechanism. Species in the injected sample were separated through a reverse phase column (Zorbax SB-C18, 2.1×50 mm, 1.8 μm, operated at 40° C.), using a mixture of acetonitrile (mixed with 1% formic acid v/v ratio), methanol (HiPerSolbe CHROMANORM Methanol, VWR BDH Chemicals) and water (HiPerSolbe CHROMANORM Water, VWR BDH Chemicals) as mobile phase.

[5] = 1 wt %, interpolated to 0.5 MJ/m^2 of energy exposure at 340 nm

Structure (SMILES) | YI (Yellowness Index) [1] | Abs @ 400 nm, RO (Absorption of ring-open isomer at 400 nm) [1] | PSS (SS) [2] | λmax (nm) [2] | RC [O] (oxidation potential of ring-closed isomer) ([3]; ring-closed isomer) | RO [O] (oxidation potential of ring-open isomer) ([3]; ring-open isomer) | Ketone (%) ([4]; 3 wt % in Rhodiasolv IRIS) | Minus-2HF (%) ([4]; 3 wt % in Rhodiasolv IRIS) | Minus-HF (%) ([4]; 3 wt % in Rhodiasolv IRIS) | Sulfone (%) ([4]; 3 wt % in Rhodiasolv IRIS) | Chromophore Remaining (%) ([4]; 3 wt % in Rhodiasolv IRIS) | Ratio of chromophore remaining relative to S340 ([4]; 3 wt %, interpolated to 0.5 MJ/m^2 of energy exposure at 340 nm) | Photostability (in words) [4] | Ketone (%) ([4]; 1 wt % in Rhodiasolv IRIS) | Minus-2HF (%) ([4]; 1 wt % in Rhodiasolv IRIS) | Minus-HF (%) ([4]; 1 wt % in Rhodiasolv IRIS) | Sulfone (%) ([4]; 1 wt % in Rhodiasolv IRIS) | Chromophore Remaining (%) ([4]; 1 wt % in Rhodiasolv IRIS) | Ratio of chromophore remaining relative to S340 [4, 5] | Sum of degradation product percentages relative to the sum of degradation product percentages for S340 [4, 5]
COc1cc2oc(-c3ccc(C(C)(C)C)cc3)c(C3=C(c4cc(-c5cccs5)sc4-c4cccs4)C(F)(F)C(F)(F)C3(F)F)c2cc1OC [Chromophore S193, 3-(2-([2,2′:5′,2″-terthiophen]-3′-yl)-3,3,4,4,5,5-hexafluorocyclopent-1-en-1-yl)-2-(4-(tert-butyl)phenyl)-5,6-dimethoxybenzofuran] | 3.59 | 0.097 | 0.269 | 587 nm | 1.02 | 1.41 | 0.0% | 2.1% | 1.4% | 0.0% | 92.7% | 1.02 | high photostability |  |  |  |  |  |  | 
COc1cc2oc(-c3ccc(C(C)(C)C)cc3)c(C3=C(c4cc(-c5cc6c(s5)C(C)(C)CC6(C)C)sc4-c4cc5c(s4)C(C)(C)CC5(C)C)C(F)(F)C(F)(F)C3(F)F)c2cc1OC [Chromophore S404] | 11.1 | 0.182 | 0.429 | 599 nm |  |  |  |  |  |  |  |  | high photostability | 0.0% | 0.0% | 0.0% | 0.0% | 100.0% | 1.10 | 0.00

Reference: patent US20220220100A1 (SOLUTIA CANADA INC., priority 2019, published 2022)
